From patent US11292807B2 (OCEANS LTD., priority 2015, dated 2022)
Several values for one entry are separate records, joined by “and”; a condition that tells them apart may be missing. Equal entries are not always repeated. Where two headings read alike, the source gives them in different places.

Experiments:
cancer cell lines = test: Anti-cancer screening of extracts, fractions and compounds (CIMA assay, bioassay-guided fractionation); type: cell-based, human; settings: in vitro
Method: Lead crude extracts were fractionated into five fractions by C-18 SPE column separation using 15 ml each of 5% methanol (fraction 1), 25% methanol (fraction 2), 50% methanol (fraction 3), 100% methanol (fraction 4) and […] (fraction 5). Extracts were fractionated and the resulting fractions were evaluated using CIMA assay. Bio-assay guided fractionation provided detailed information regarding the compound(s) responsible for specific bioactivity.

[1] = system: CCD1079SK (fibroblast, noncancerous but proliferating); test: CIMA assay, cell viability, CCD1079SK; settings: for Fold change in viability AVG / Average cell viability: CCD
[2] = system: U373 (glioblastoma-astrocytoma); test: CIMA assay, cell viability, U373; settings: for Fold change in viability AVG / Average cell viability: U373
A549 (lung carcinoma) = test: CIMA assay (colorimetric indicator of metabolic activity), cell viability, A549; settings: for Average cell viability: unit assumed
Method: (§1) Stock solutions of the extracts were prepared in dimethylsulfoxide (DMSO) at 10 mg/mL and stored in 200 μl aliquots at −20° C. until analysis. This preparation ensured that the DMSO delivered to cells in culture never exceeded 1%.
(§2) Prepared extracts were assessed following chronic exposure conditions in which cells were seeded at 2×10^3 cells/well (96 well-plate) and incubated with test compounds for 72 h. Each compound was evaluated over a range of concentrations (0, 10, 25, 50 or 100 μg/ml). Cell proliferation was initially assessed using a standard colorimetric indicator of metabolic activity (CIMA) assay. In this assay, tetrazole reduction was evaluated as a measure of metabolic function that evaluates mitochondrial activity to determine the extent of cell proliferation within a culture. This assay is based on the reduction of yellow tetrazolium salt to purple formazan by mitochondrial reductases enzyme in viable cells, resulting in a color changed that confers a change in absorbance.

MDA-MB [3] = settings: MDA-MB
in vitro = settings: human, Average cell viability
[4] = system: THP-1 (acute monocytic leukemia); test: CIMA assay, cell viability, THP-1
[5] = system: SKOV3 (ovarian adenocarcinoma); test: CIMA assay, cell viability, SKOV3; settings: for Fold change in viability AVG: SKOV
PC3 [6] = test: CIMA assay, cell viability, PC3; settings: for Fold change in viability AVG: PC3
MDA-MB [7] = test: cells; settings: Homo sapiens, read-out: Average cell viability, MDA-MB
[8] = system: SKOV3 (ovarian adenocarcinoma)
PC3 [9] = system: PC3
[10] = system: MCF7 (mammary gland adenocarcinoma); test: CIMA assay, cell viability, MCF7; type: cell-based, human; settings: SDS 5% control
Method: as §1, §2

CO[C@H]1CC(C)(C)C(/C=C/C(C)=C/C=C/C(C)=C/C=C/C=C(C)/C=C/C=C(C)/C=C/C2=C(C)C[C@@H](O)CC2(C)C)=C(C)C1=O [D]
anti-cancer activity (in words) (cancer cell lines): anti-cancer activity

CO[C@H]1CC(C)(C)C(/C=C/C(C)=C/C=C/C(C)=C/C=C/C=C(C)/C=C/C=C(C)/C=C/[C@H]2C(C)=C[C@@H](O)CC2(C)C)=C(C)C1=O [C]
anti-cancer activity (in words) (cancer cell lines): anti-cancer activity

CCCCC/C=C\C/C=C\CCCCCCCC(=O)O [Compound 20, linoleic acid]
Fold change in viability AVG ([1]; 1 ug/mL): 1.02
Fold change in viability AVG ([1]; 10 ug/mL): 1.07
Fold change in viability AVG ([1]; 50 ug/mL): 0.15
Fold change in viability AVG ([1]; 100 ug/mL): 0.06
viability at 1 µg/mL ([2]; Homo sapiens, U373 MG, read-out: Average cell viability, U373, 1 ug/mL): 87%
viability at 10 µg/mL ([2]; Homo sapiens, U373 MG, read-out: Average cell viability, U373, 10 ug/mL): 89%
viability at 50 µg/mL ([2]; Homo sapiens, U373 MG, read-out: Average cell viability, U373, 50 ug/mL): 7%
viability at 100 µg/mL ([2]; Homo sapiens, U373 MG, read-out: Average cell viability, U373, 100 ug/mL): 5%
U373 AVG ([2]; U373, sample at 1 ug/mL): 0.89
U373 AVG ([2]; U373, sample at 10 ug/mL): 0.90
U373 AVG ([2]; U373, sample at 50 ug/mL): 0.07
U373 AVG ([2]; U373, sample at 100 ug/mL): 0.05
Fold change in viability AVG ([2]; 1 ug/mL): 0.89
Fold change in viability AVG ([2]; 10 ug/mL): 0.90
Fold change in viability AVG ([2]; 50 ug/mL): 0.07
Fold change in viability AVG ([2]; 100 ug/mL): 0.05
A549 AVG (A549 (lung carcinoma); A549, sample at 1 ug/mL): 1.11
A549 AVG (A549 (lung carcinoma); A549, sample at 10 ug/mL): 1.12
A549 AVG (A549 (lung carcinoma); A549, sample at 50 ug/mL): 0.66
A549 AVG (A549 (lung carcinoma); A549, sample at 100 ug/mL): 0.13
Fold change in viability AVG (A549 (lung carcinoma); A549, 1 ug/mL): 1.11
Fold change in viability AVG (A549 (lung carcinoma); A549, 10 ug/mL): 1.12
Fold change in viability AVG (A549 (lung carcinoma); A549, 50 ug/mL): 0.66
Fold change in viability AVG (A549 (lung carcinoma); A549, 100 ug/mL): 0.13
viability at 1 µg/mL (A549 (lung carcinoma); Homo sapiens, A549, read-out: Average cell viability, A549, 1 ug/mL): 95%
viability at 10 µg/mL (A549 (lung carcinoma); Homo sapiens, A549, read-out: Average cell viability, A549, 10 ug/mL): 96%
viability at 50 µg/mL (A549 (lung carcinoma); Homo sapiens, A549, read-out: Average cell viability, A549, 50 ug/mL): 56%
viability at 100 µg/mL (A549 (lung carcinoma); Homo sapiens, A549, read-out: Average cell viability, A549, 100 ug/mL): 11%
MDA-MB AVG (MDA-MB [3]; sample at 1 ug/mL): 1.09
MDA-MB AVG (MDA-MB [3]; sample at 10 ug/mL): 1.04
MDA-MB AVG (MDA-MB [3]; sample at 50 ug/mL): 0.19
MDA-MB AVG (MDA-MB [3]; sample at 100 ug/mL): 0.16
Fold change in viability AVG (MDA-MB [3]; 1 ug/mL): 1.09
Fold change in viability AVG (MDA-MB [3]; 10 ug/mL): 1.04
Fold change in viability AVG (MDA-MB [3]; 50 ug/mL): 0.19
Fold change in viability AVG (MDA-MB [3]; 100 ug/mL): 0.16
viability at 72 h, 1 ug/mL (in vitro): 93%
viability at 72 h, 10 ug/mL (in vitro): 97%
viability at 72 h, 50 ug/mL (in vitro): 13%
viability at 72 h, 100 ug/mL (in vitro): 6%
viability at 1 µg/mL ([4]; Homo sapiens, THP-1, read-out: Average cell viability, THP-1, 1 ug/mL): 91%
viability at 10 µg/mL ([4]; Homo sapiens, THP-1, read-out: Average cell viability, THP-1, 10 ug/mL): 91%
viability at 50 µg/mL ([4]; Homo sapiens, THP-1, read-out: Average cell viability, THP-1, 50 ug/mL): 21%
viability at 100 µg/mL ([4]; Homo sapiens, THP-1, read-out: Average cell viability, THP-1, 100 ug/mL): 17%
THP-1 AVG ([4]; THP-1, sample at 1 ug/mL): 1.04
THP-1 AVG ([4]; THP-1, sample at 10 ug/mL): 1.03
THP-1 AVG ([4]; THP-1, sample at 50 ug/mL): 0.24
THP-1 AVG ([4]; THP-1, sample at 100 ug/mL): 0.19
Fold change in viability AVG ([4]; THP-1, 1 ug/mL): 1.04
Fold change in viability AVG ([4]; THP-1, 10 ug/mL): 1.03
Fold change in viability AVG ([4]; THP-1, 50 ug/mL): 0.24
Fold change in viability AVG ([4]; THP-1, 100 ug/mL): 0.19
viability at 1 µg/mL ([5]; Homo sapiens, SK-OV-3, read-out: Average cell viability, SKOV, 1 ug/mL): 85%
viability at 10 µg/mL ([5]; Homo sapiens, SK-OV-3, read-out: Average cell viability, SKOV, 10 ug/mL): 88%
viability at 50 µg/mL ([5]; Homo sapiens, SK-OV-3, read-out: Average cell viability, SKOV, 50 ug/mL): 67%
viability at 100 µg/mL ([5]; Homo sapiens, SK-OV-3, read-out: Average cell viability, SKOV, 100 ug/mL): 26%
Fold change in viability AVG ([5]; 1 ug/mL): 0.91
Fold change in viability AVG ([5]; 10 ug/mL): 0.95
Fold change in viability AVG ([5]; 50 ug/mL): 0.73
Fold change in viability AVG ([5]; 100 ug/mL): 0.28
viability at 1 µg/mL (PC3 [6]; Homo sapiens, PC-3, read-out: Average cell viability, PC3, 1 ug/mL): 91%
viability at 10 µg/mL (PC3 [6]; Homo sapiens, PC-3, read-out: Average cell viability, PC3, 10 ug/mL): 97%
viability at 50 µg/mL (PC3 [6]; Homo sapiens, PC-3, read-out: Average cell viability, PC3, 50 ug/mL): 11%
viability at 100 µg/mL (PC3 [6]; Homo sapiens, PC-3, read-out: Average cell viability, PC3, 100 ug/mL): 6%
PC3 AVG (PC3 [6]; PC3, sample at 1 ug/mL): 0.94
PC3 AVG (PC3 [6]; PC3, sample at 10 ug/mL): 1.00
PC3 AVG (PC3 [6]; PC3, sample at 50 ug/mL): 0.12
PC3 AVG (PC3 [6]; PC3, sample at 100 ug/mL): 0.06
Fold change in viability AVG (PC3 [6]; 1 ug/mL): 0.94
Fold change in viability AVG (PC3 [6]; 10 ug/mL): 1.00
Fold change in viability AVG (PC3 [6]; 50 ug/mL): 0.12
Fold change in viability AVG (PC3 [6]; 100 ug/mL): 0.06
viability at 1 µg/mL (MDA-MB [7]; 1 ug/mL): 100%
viability at 10 µg/mL (MDA-MB [7]; 10 ug/mL): 95%
viability at 50 µg/mL (MDA-MB [7]; 50 ug/mL): 17%
viability at 100 µg/mL (MDA-MB [7]; 100 ug/mL): 15%

CCCCCCCCCCCCOS(=O)(=O)[O-].[Na+] [SDS, reference compound]
viability (AVG) ([1]; CCD1079SK, SDS 5% control): 9.4
AVG (CIMA assay, cell viability) ([1]; CCD10795K, SDS 5% control): 11.3
Fold change in viability AVG ([1]; positive control 250 ug/mL): 0.06
Average cell viability ([1]; positive control 250 ug/ml): 5%
Fold change in viability AVG ([1]; positive control SDS 250 ug/mL): 0.06
Average cell viability ([1]; positive control SDS 250 ug/ml): 5%
AVG (CIMA assay, cell viability) ([2]; U373, SDS 5% control): 58.1 and 44.1
viability (AVG) ([2]; U373, SDS 5% control): 48.4
Fold change in viability AVG ([2]; positive control 250 ug/mL): 0.05
Average cell viability ([2]; positive control 250 ug/ml): 4%
Fold change in viability AVG ([2]; positive control SDS 250 ug/mL): 0.05
Average cell viability ([2]; positive control SDS 250 ug/ml): 4%
AVG (CIMA assay, cell viability) [8]: 56.5
viability (AVG) [8]: 78.9%
viability (AVG) (A549 (lung carcinoma); A549, SDS 5% control): 68.7
Fold change in viability AVG (A549 (lung carcinoma); A549, positive control 250 ug/mL): 0.13
Average cell viability (A549 (lung carcinoma); A549, positive control 250 ug/ml): 11%
Fold change in viability AVG (A549 (lung carcinoma); A549, positive control SDS 250 ug/mL): 0.13
Average cell viability (A549 (lung carcinoma); A549, positive control SDS 250 ug/ml): 11%
viability (AVG) (PC3 [9]): 77.3%
AVG (CIMA assay, cell viability) [10]: 49.9
viability (AVG) [10]: 44.1
Fold change in viability AVG (MDA-MB [3]; positive control 250 ug/mL): 0.16
Fold change in viability AVG (MDA-MB [3]; positive control SDS 250 ug/mL): 0.16
AVG (CIMA assay, cell viability) ([4]; THP-1, SDS 5% control): 36.2
viability (AVG) ([4]; THP-1, SDS 5% control): 20.3
Fold change in viability AVG ([4]; THP-1, positive control 250 ug/mL): 0.18
Average cell viability ([4]; THP-1, positive control 250 ug/ml): 16%
Fold change in viability AVG ([4]; THP-1, positive control SDS 250 ug/mL): 0.18
Average cell viability ([4]; THP-1, positive control SDS 250 ug/ml): 16%
Fold change in viability AVG ([5]; positive control 250 ug/mL): 0.10
Fold change in viability AVG ([5]; positive control SDS 250 ug/mL): 0.10
Fold change in viability AVG (PC3 [6]; positive control 250 ug/mL): 0.08
Fold change in viability AVG (PC3 [6]; positive control SDS 250 ug/mL): 0.08
